Consider 26 compounds from patent publication US6479531B1, “Gastrin and cholecystokinin receptor ligands” (James Black Foundation Limited, priority 1998, dated 2002).

For this assay, the target named is T1, gastrin receptor (Rattus norvegicus, UniProt P30553).
T1 construct: The stomach was excised and flushed with ca. 1 ml of unbuffered physiological saline solution; from tissue; host or cells: isolated whole stomach of immature rats (ca. 21 days old)
T1 sequence (P30553 1-452): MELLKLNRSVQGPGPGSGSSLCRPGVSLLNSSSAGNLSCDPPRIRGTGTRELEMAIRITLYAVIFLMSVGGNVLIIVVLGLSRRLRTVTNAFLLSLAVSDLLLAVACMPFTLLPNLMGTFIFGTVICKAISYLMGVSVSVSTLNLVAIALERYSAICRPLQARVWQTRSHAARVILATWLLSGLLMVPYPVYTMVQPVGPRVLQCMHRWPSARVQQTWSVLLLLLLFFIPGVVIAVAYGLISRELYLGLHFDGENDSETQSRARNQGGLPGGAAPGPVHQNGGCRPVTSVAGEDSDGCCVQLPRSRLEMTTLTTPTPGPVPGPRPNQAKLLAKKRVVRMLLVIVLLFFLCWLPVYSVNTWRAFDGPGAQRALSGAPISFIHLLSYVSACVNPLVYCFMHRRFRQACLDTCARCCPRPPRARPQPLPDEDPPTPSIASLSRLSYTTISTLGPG
The experiment in a line: gastrin antagonist activity in immature rat stomach assay (pentagastrin dose-response, acid secretion). Conditions: isolated immature rat stomach, cumulative pentagastrin dose-response curves; for Kb: read-out: Gastrin pKb (converted). How it is done: The compounds of the examples were also tested for gastrin antagonist activity in an immature rat stomach assay. The procedure was as follows:
The oesophagus of immature rats (33-50 g, ca. 21 days old) was ligated at the level of the cardiac sphincter and the duodenal sphincter was cannulated. The stomach was excised and flushed with ca. 1 ml of unbuffered physiological saline solution. The fundus was punctured and cannulated. A further 4-5 ml of unbuffered solution was flushed through the stomach to ensure the preparation was not leaking. The stomach was lowered into a jacketed organ bath containing 40 ml of buffered solution containing 3×10^−8 M 5-methylfurmethide, maintained at 37° and gassed vigorously with 95% O2/5% CO2. The stomach was continuously perfused at a rate of 1 ml min^−1 with unbuffered solution gassed with 100% O2 with the perfusate passing over an internally referenced pH-electrode fixed 12 cm above the stomach.
After 120 min of stabilisation the drugs were added directly to the serosal solution in the organ bath and after a further 60 min cumulative pentagastrin dose-response curves were started. Changes in acid secretion were monitored and the curves analysed according to Black et al., Br. J. Pharmacol., 1985, 86, 581.

Take `O=C(O)c1cccc(NC(=O)c2nc([C@@H]3CC4C=C[C@@H]3C4)[nH]c2COC23CC4CC(CC(C4)C2)C3)c1` [Example 294, exo-3-([5-(Adamantan-1-yloxymethyl)-2-((1S,2R)-bicyclo[2.2.1]hept-5-en-2-yl)-1H-imidazole-4-carbonyl]-amino}-benzoic Acid]: the “Gastrin pKb” value is given as 8.43.

As for `O=C(O)c1cccc(NC(=O)c2nc(C3CCCCCC3)[nH]c2COC23CC4CC(CC(C4)C2)C3)c1` [Example 228, 3-{[5-(Adamantan-1-yloxymethyl)-2-cycloheptyl-1H-imidazole-4-carbonyl]-amino}-benzoic Acid], the Kb is 0.724 nM.

As to `O=C(O)CCc1c(F)ccc(NC(=O)c2nc(C3CCCCC3)[nH]c2CCC23CC4CC(CC(C4)C2)C3)c1F` [Example 284, 3-(3-{[5-(2-Adamantan-1-yl-ethyl)-2-cyclohexyl-1H-imidazole-4-carbonyl]-amino}-2,6-difluoro-phenyl)-propionic Acid], the Kb was 97.7 nM.

Consider `O=C(Nc1cccc(C(=O)N2CCC[C@H]2C(=O)O)c1)c1nc(C2CCCCC2)[nH]c1CCC12CC3CC(CC(C3)C1)C2` [Example 285, (S)-1-(3-{[5-(2-Adamantan-1-yl-ethyl)-2-cyclohexyl-1H-imidazole-4-carbonyl]-amino}-benzoyl)-pyrrolidine-2-carboxylic Acid], for which the Kb was 1000 nM.

As for `Cc1ccc(NC(=O)c2nc([C@H]3CC4C=C[C@@H]3C4)[nH]c2COC23CC4CC(CC(C4)C2)C3)cc1C(=O)O` [Example 289, endo-5-{[5-(Adamantan-1-yloxymethyl)-2-((1S,2S)-bicyclo[2.2.1]hept-5-en-2-yl)-1H-imidazole-4-carbonyl]-amino}-2-methyl-benzoic Acid], the “Gastrin pKb” value was 8.74.

Take `O=C(O)c1cccc(NC(=O)c2nc([C@H]3CC4CC[C@H]3C4)[nH]c2COC23CC4CC(CC(C4)C2)C3)c1` [Example 291, endo-3-{[5-(Adamantan-1-yloxymethyl)-2-((1S,2S)-bicyclo[2.2.1]hept-2-yl)-1H-imidazole-4-carbonyl]-amino}-benzoic Acid]: the “Gastrin pKb” value is 9.12.

Consider `Cc1c(NC(=O)c2nc(C34CCC(CC3)CC4)[nH]c2COC23CC4CC(CC(C4)C2)C3)cccc1C(=O)O` [Example 222, 3-{[5-(Adamantan-1-yloxymethyl)-2-bicyclo[2.2.2]oct-1-yl-1H-imidazole-4-carbonyl]-amino}-2-methyl-benzoic Acid], for which the Kb was 20.4 nM.

As for `C[C@H](NC(=O)c1cccc(NC(=O)c2nc(C3CCCCC3)[nH]c2CCC23CC4CC(CC(C4)C2)C3)c1)C(=O)O` [Example 272, (S)-2-(3-{[5-(2-Adamantan-1-yl-ethyl)-2-cyclohexyl-1H-imidazole-4-carbonyl]-amino}-benzoylamino)-propionic Acid], the Kb is 186 nM.

Regarding `O=C(O)c1cccc(NC(=O)c2nc(C3C4C=CC3C=C4)[nH]c2COC23CC4CC(CC(C4)C2)C3)c1` (centres unmarked) [Example 288, 3-{[5-(Adamantan-1-yloxymethyl)-2-bicyclo[2.2.1]hepta-2,5-dien-7-yl-1H-imidazole-4-carbonyl]-amino}-benzoic Acid], the Kb is 13.2 nM.

For the compound `O=C(O)c1cccc(NC(=O)c2[nH]c(C34CCC(CC3)CC4)nc2CCC23CC4CC(CC(C4)C2)C3)c1` [Example 212, 3-{[5-(2-Adamantan-1-yl-ethyl)-2-bicyclo[2.2.2]oct-1-yl-1H-imidazole-4-carbonyl]-amino}-benzoic Acid], the Kb is 2.45 nM.

For `O=C(O)c1cccc(NC(=O)c2nc(C3CCCCC3)[nH]c2COCC23CC4CC(CC(C4)C2)C3)c1` [Example 309, 3-{[5-(Adamantan-1-ylmethoxymethyl)-2-cyclohexyl-1H-imidazole-4-carbonyl]-amino}-benzoic Acid], the Kb was 24.5 nM.

Take `Cc1cc(C)c(-c2nc(C(=O)Nc3ccc(F)c(C(=O)O)c3)c(CCC34CC5CC(CC(C5)C3)C4)[nH]2)c(C)c1` [Example 156, 5-{[5-(2-Adamantan-1-yl-ethyl)-2-(2,4,6-trimethyl-phenyl)-1H-imidazole-4-carbonyl]-amino}-2-fluoro-benzoic Acid]: the Kb was 63.1 nM.

With `Cc1ccc(NC(=O)c2nc(C3CCCCC3)[nH]c2COCC23CC4CC(CC(C4)C2)C3)cc1C(=O)O` [Example 310, 5-{[5-(Adamantan-1-ylmethoxymethyl)-2-cyclohexyl-1H-imidazole-4-carbonyl]-amino}-2-methyl-benzoic Acid], the Kb is 115 nM.

For `O=C(O)c1cccc(NC(=O)c2c(COC34CC5CC(CC(C5)C3)C4)nc(C34CCC(CC3)CC4)n2O)c1` [Example 314, 3-{[5-(Adamantan-1-yloxymethyl)-2-bicyclo[2.2.2]oct-1-yl-3-hydroxy-3H-imidazole-4-carbonyl]-amino}-benzoic Acid], the Kb was 6.31 nM.

For the compound `O=C(O)Cc1c(F)ccc(NC(=O)c2nc(C3CCCCC3)[nH]c2CCC23CC4CC(CC(C4)C2)C3)c1F` [Example 270, (3-{[5-(2-Adamantan-1-yl-ethyl)-2-cyclohexyl-1H-imidazole-4-carbonyl]-amino}-2,6-difluoro-phenyl)-acetic Acid], the Kb is 195 nM.

In the case of `CC1(C)C2CC[C@@]1(C)C(c1nc(C(=O)Nc3cccc(C(=O)O)c3)c(CCC34CC5CC(CC(C5)C3)C4)[nH]1)C2` (mixture of isomers) [Example 206, 3-{[5-(2-Adamantan-1-yl-ethyl)-2-[(1S,2RS)-1,7,7-trimethyl-bicyclo[2.2.1]hept-2-yl]-1H-imidazole-4-carbonyl]-amino}-benzoic Acid], the Kb was 263 nM.

In the case of `Cc1ccc(NC(=O)c2nc(C34C=CC(CC3)CC4)[nH]c2COC23CC4CC(CC(C4)C2)C3)cc1C(=O)O` [Example 301, 5-{[5-(Adamantan-1-yloxymethyl)-2-bicyclo[2.2.2]oct-2-en-1-yl-1H-imidazole-4-carbonyl]-amino}-2-methyl-benzoic Acid], the Kb was 2.63 nM.

As to `O=C(O)c1cccc(NC(=O)c2nc([C@H]3CC4C=C[C@H]3C4)[nH]c2COC23CC4CC(CC(C4)C2)C3)c1` [Example 295, exo-3-{[5-(Adamantan-1-yloxymethyl)-2-((1R,2S)-bicyclo[2.2.1]hept-5-en-2-yl)-1H-imidazole-4-carbonyl]-amino}-benzoic Acid], the “Gastrin pKb” value is recorded as 8.61.

As for `Cc1cc(C)c(-c2nc(C(=O)Nc3ccc(F)c(C(=O)O)c3)c(CCC34CC5CC(CC(C5)C3)C4)[nH]2)c(C)n1` [Example 184, 5-{[5-(2-Adamantan-1-yl-ethyl)-2-(2,4,6-trimethyl-pyridine-3-yl)-1H-imidazole-4-carbonyl]-amino}-2-fluoro-benzoic Acid], the Kb is 70.8 nM.

Turning to `Cc1ccc(NC(=O)c2nc(C3CCCCC3)[nH]c2CCC23CC4CC(CC(C4)C2)C3)cc1C(=O)O` [Example 107], the “Gastrin pKb” value worked out at 7.65.

In the case of `Cc1cc(C)c(-c2nc(C(=O)Nc3cccc(CC(=O)O)c3)c(CCC34CC5CC(CC(C5)C3)C4)[nH]2)c(C)c1` [Example 157, (3-{[5-(2-Adamantan-1-yl-ethyl)-2-(2,4,6-trimethyl-phenyl)-1H-imidazole-4-carbonyl]-amino}-phenyl)-acetic Acid], the Kb is 219 nM.

Take `O=C(O)Cc1cccc(NC(=O)c2nc(C3CCCCCC3)[nH]c2COC23CC4CC(CC(C4)C2)C3)c1` [Example 229, (3-{[5-(Adamantan-1-yloxymethyl)-2-cycloheptyl-1H-imidazole-4-carbonyl]-amino}-phenyl)-acetic Acid]: the Kb is 35.5 nM.

As to `COCC(COC)c1nc(C(=O)Nc2cccc(C(=O)O)c2)c(CCC23CC4CC(CC(C4)C2)C3)[nH]1` [Example 189, 3-{[5-(2-Adamantan-1-yl-ethyl)-2-(2-methoxy-1-methoxymethyl-ethyl)-1H-imidazole-4-carbonyl]-amino}-benzoic Acid], the Kb is 61.7 nM.

For `Cc1ccc(NC(=O)c2nc(C34CCC(CC3)CC4)[nH]c2COC23CC4CC(CC(C4)C2)C3)cc1C(=O)O` [Example 300, 5-{[5-(Adamantan-1-yloxymethyl)-2-bicyclo[2.2.2]oct-1-yl-1H-imidazole-4-carbonyl]-amino}-2-methyl-benzoic Acid], the Kb is 3.02 nM.

As to `Cc1ccccc1-c1nc(C(=O)Nc2cccc(C(=O)O)c2)c(COC23CC4CC(CC(C4)C2)C3)[nH]1` [Example 304, 3-{[5-(Adamantan-1-yloxymethyl)-2-o-tolyl-1H-imidazole-4-carbonyl]-amino}-benzoic Acid], the Kb is 24 nM.

On to `O=C(O)c1cccc(NC(=O)c2nc(C34C=CC(CC3)CC4)[nH]c2COC23CC4CC(CC(C4)C2)C3)c1` [Example 225, 3-{[5-(Adamantan-1-yloxymethyl)-2-bicyclo[2.2.2]oct-2-en-1-yl-1H-imidazole-4-carbonyl]-amino}-benzoic Acid], for which the Kb is 0.661 nM.
